These results are taken from patent US20210221848A1, “POLYMYXIN DERIVATIVES AND THEIR USE IN COMBINATION THERAPY TOGETHER WITH DIFFERENT ANTIBIOTICS” (priority 2014, published 2021).

Assay [1] relates to P. aeruginosa.
Assay [2] concerns A. baumanii strains with elevated MICs to Polymyxin B. Put plainly: MIC against strains with elevated MICs to Polymyxin B. It is filed as cell-based, Acinetobacter baumannii. As to conditions: Table 6D; for MIC A. baumannii 053: strain 053, elevated MIC to Polymyxin B; for MIC A. baumannii 056: strain 056, elevated MIC to Polymyxin B; for MIC A. baumannii 068: strain 068, elevated MIC to Polymyxin B; for MIC A. baumannii 070: strain 070, elevated MIC to Polymyxin B. The method, boiled down:
(§1)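 Direct colony suspension at 0.5 McFarland (from 18-24 h Mueller-Hinton agar) served as inoculum; duplicates, lower value kept if within 2-fold.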

Assay [3] deals with P. aeruginosa strains with elevated MICs to Polymyxin B. The description is as above. It is filed as cell-based, Pseudomonas aeruginosa. The conditions noted are these: Table 6D; for MIC P. aeruginosa 065: strain 065, elevated MIC to Polymyxin B; for MIC P. aeruginosa 066: strain 066, elevated MIC to Polymyxin B; for MIC P. aeruginosa 067: strain 067, elevated MIC to Polymyxin B. In short, it runs like this:
as §1

In assay [4] the test system is K. pneumoniae strains with elevated MICs to Polymyxin B. The description is as above. It is filed as cell-based, Klebsiella pneumoniae. As to conditions: Table 6D; for MIC K. pneumoniae 062: strain 062, elevated MIC to Polymyxin B; for MIC K. pneumoniae 063: strain 063, elevated MIC to Polymyxin B; for MIC K. pneumoniae 064: strain 064, elevated MIC to Polymyxin B; for MIC K. pneumoniae 655: strain 655, elevated MIC to Polymyxin B. The method, boiled down: as §1

Assay [5] relates to A. baumannii.
The test system of assay [6] is E. coli strains with elevated MICs to Polymyxin B. Put plainly: MIC against strains with elevated MICs to Polymyxin B. The conditions noted are these: Table 6D; for MIC E. coli 058: strain 058, elevated MIC to Polymyxin B; for MIC E. coli 059: strain 059, elevated MIC to Polymyxin B; for MIC E. coli 060: strain 060, elevated MIC to Polymyxin B; for MIC E. coli 061: strain 061, elevated MIC to Polymyxin B. It is filed as cell-based, Escherichia coli. The method, boiled down: as §1

Assay [7] deals with K. pneumoniae.
In assay [8] the test system is E. coli.
[9] abbreviates: absence of a second agent, Table 6B.

Where two headings read alike, the source gives them in different places.

Consider “(S)-4-amino-2- (((S)-6- methyloctyl)amino) butanoyl polymyxin B nonapeptide [Example D90]”, for which, in assay [1] (sole activity, Table 6C), the “MIC, P. aeruginosa ATCC 27853” value was found to be 0.5 micrograms/mL and the “MIC, P. aeruginosa CCUG 59347” value is on record as 0.25 micrograms/mL. In assay [2], the “MIC A. baumannii 053” value is listed as 32 micrograms/mL, the “MIC A. baumannii 056” value amounted to 8 micrograms/mL, the “MIC A. baumannii 068” value came out at 2 micrograms/mL and the “MIC A. baumannii 070” value amounted to 2 micrograms/mL. In addition, in assay [3], the “MIC P. aeruginosa 065” value is 0.25 micrograms/mL, the “MIC P. aeruginosa 066” value came to 8 micrograms/mL and the “MIC P. aeruginosa 067” value was found to be 32 micrograms/mL. Moreover, in assay [4], the “MIC K. pneumoniae 062” value is 16 micrograms/mL, the “MIC K. pneumoniae 063” value was found to be 32 micrograms/mL, the “MIC K. pneumoniae 064” value came to 4 micrograms/mL and the “MIC K. pneumoniae 655” value is reported as 16 micrograms/mL. For the same substance, in assay [5] (sole activity, Table 6C), the “MIC, A. baumannii ATCC BAA-747” value turned out to be 0.25 micrograms/mL and the “MIC, A. baumannii NCTC 13424” value was 0.25 micrograms/mL. For the same substance, in assay [6], the “MIC E. coli 058” value turned out to be 2 micrograms/mL, the “MIC E. coli 059” value worked out at 2 micrograms/mL, the “MIC E. coli 060” value was 2 micrograms/mL and the “MIC E. coli 061” value was determined as 8 micrograms/mL. For the same substance, the “MIC, K. pneumoniae ATCC 4352” value in assay [7] (sole activity, Table 6C) was 0.25 micrograms/mL. The “MIC, E. coli ATCC 25922” value in assay [8] (sole activity, Table 6C) is 0.25 micrograms/mL.
As for “cis-5-cyclohexyl- piperidine-3- carbonyl L-Thr-L- Dap-polymyxin B heptapeptide [Example D85]”, in assay [1] (sole activity, Table 6C), the “MIC, P. aeruginosa ATCC 27853” value stood at 0.125 micrograms/mL and the “MIC, P. aeruginosa CCUG 59347” value is 0.25 micrograms/mL. Moreover, in assay [2], the “MIC A. baumannii 053” value amounted to 64 micrograms/mL, the “MIC A. baumannii 056” value turned out to be 4 micrograms/mL, the “MIC A. baumannii 068” value turned out to be 8 micrograms/mL and the “MIC A. baumannii 070” value is 8 micrograms/mL. Besides, in assay [3], the “MIC P. aeruginosa 065” value was 4 micrograms/mL, the “MIC P. aeruginosa 066” value is 16 micrograms/mL and the “MIC P. aeruginosa 067” value was above 128 micrograms/mL. Besides, in assay [4], the “MIC K. pneumoniae 063” value amounted to 64 micrograms/mL, the “MIC K. pneumoniae 064” value amounted to 16 micrograms/mL and the “MIC K. pneumoniae 655” value amounted to 32 micrograms/mL. Besides, in assay [5] (sole activity, Table 6C), the “MIC, A. baumannii ATCC BAA-747” value amounted to 0.015 micrograms/mL and the “MIC, A. baumannii NCTC 13424” value was 0.06 micrograms/mL. In assay [6], the “MIC E. coli 058” value was 2 micrograms/mL, the “MIC E. coli 059” value amounted to 16 micrograms/mL, the “MIC E. coli 060” value is listed as 4 micrograms/mL and the “MIC E. coli 061” value was 16 micrograms/mL. Moreover, in assay [7] (sole activity, Table 6C), the “MIC, K. pneumoniae ATCC 4352” value worked out at 0.06 micrograms/mL. Also, in assay [8] (sole activity, Table 6C), the “MIC, E. coli ATCC 25922” value was 0.06 micrograms/mL and the “MIC, E. coli NCTC 13441” value worked out at 0.125 micrograms/mL.
As to “1-(2- hydroxybenzyl)pi- perazine-2- carbonyl Polymyxin B nonapeptide [Example D67]”, in assay [1] (sole activity, Table 6C), the “MIC, P. aeruginosa ATCC 27853” value was 0.25 micrograms/mL and the “MIC, P. aeruginosa CCUG 59347” value is 0.5 micrograms/mL. Besides, in assay [2], the “MIC A. baumannii 053” value is recorded as above 256 micrograms/mL and the “MIC A. baumannii 068” value was determined as 64 micrograms/mL. Moreover, the “MIC P. aeruginosa 065” value in assay [3] was determined as 4 micrograms/mL. For the same substance, the “MIC K. pneumoniae 063” value in assay [4] was found to be 128 micrograms/mL. Moreover, in assay [5] (sole activity, Table 6C), the “MIC, A. baumannii ATCC BAA-747” value is on record as 0.5 micrograms/mL and the “MIC, A. baumannii NCTC 13424” value came out at 0.25 micrograms/mL. Moreover, in assay [6], the “MIC E. coli 058” value turned out to be 8 micrograms/mL, the “MIC E. coli 059” value is reported as 64 micrograms/mL and the “MIC E. coli 060” value is 16 micrograms/mL. Further, in assay [7] (sole activity, Table 6C), the “MIC, K. pneumoniae ATCC 4352” value turned out to be 0.03 micrograms/mL and the “MIC, K. pneumoniae ATCC BAA-2146” value was 0.06 micrograms/mL. In assay [8] (sole activity, Table 6C), the “MIC, E. coli ATCC 25922” value is given as 0.06 micrograms/mL and the “MIC, E. coli NCTC 13441” value worked out at 0.125 micrograms/mL.
On to “trans-4- octylpyrrolidine- 3-carbonyl L-Thr- L-Dap-polymyxin B heptapeptide [Example D89]”, for which, in assay [1] (sole activity, Table 6C), the “MIC, P. aeruginosa ATCC 27853” value is on record as 0.5 micrograms/mL and the “MIC, P. aeruginosa CCUG 59347” value was determined as 1 micrograms/mL. Also, in assay [2], the “MIC A. baumannii 053” value stood at 8 micrograms/mL, the “MIC A. baumannii 056” value was 4 micrograms/mL, the “MIC A. baumannii 068” value was 0.5 micrograms/mL and the “MIC A. baumannii 070” value amounted to 0.5 micrograms/mL. For the same substance, in assay [3], the “MIC P. aeruginosa 065” value is 0.5 micrograms/mL, the “MIC P. aeruginosa 066” value is listed as 1 micrograms/mL and the “MIC P. aeruginosa 067” value was found to be 16 micrograms/mL. In assay [4], the “MIC K. pneumoniae 062” value was determined as 8 micrograms/mL, the “MIC K. pneumoniae 063” value was found to be 4 micrograms/mL, the “MIC K. pneumoniae 064” value was determined as 1 micrograms/mL and the “MIC K. pneumoniae 655” value was found to be 8 micrograms/mL. For the same substance, in assay [5] (sole activity, Table 6C), the “MIC, A. baumannii ATCC BAA-747” value turned out to be 0.5 micrograms/mL and the “MIC, A. baumannii NCTC 13424” value was 0.5 micrograms/mL. In assay [6], the “MIC E. coli 058” value came to 1 micrograms/mL, the “MIC E. coli 059” value was determined as 1 micrograms/mL, the “MIC E. coli 060” value is 0.5 micrograms/mL and the “MIC E. coli 061” value was found to be 2 micrograms/mL. In addition, the “MIC, K. pneumoniae ATCC BAA-2146” value in assay [7] (sole activity, Table 6C) is 0.5 micrograms/mL. For the same substance, in assay [8] (sole activity, Table 6C), the “MIC, E. coli ATCC 25922” value was 0.5 micrograms/mL and the “MIC, E. coli NCTC 13441” value turned out to be 0.125 micrograms/mL.
Consider “4-octylpiperidine-3- carbonyl polymyxin B nonapeptide [Example D35]”, for which, in assay [1] (setting [9]), the “MIC, P. aeruginosa ATCC 27853” value stood at 1 micrograms/mL and the “MIC, P. aeruginosa CCUG 59347” value is given as 1 micrograms/mL. Further, in assay [2], the “MIC A. baumannii 053” value was found to be 32 micrograms/mL, the “MIC A. baumannii 056” value worked out at 8 micrograms/mL, the “MIC A. baumannii 068” value is recorded as 1 micrograms/mL and the “MIC A. baumannii 070” value amounted to 1 micrograms/mL. Further, in assay [3], the “MIC P. aeruginosa 065” value is reported as 0.25 micrograms/mL, the “MIC P. aeruginosa 066” value is listed as 1 micrograms/mL and the “MIC P. aeruginosa 067” value was 4 micrograms/mL. Besides, in assay [4], the “MIC K. pneumoniae 062” value was determined as 1 micrograms/mL, the “MIC K. pneumoniae 063” value is 2 micrograms/mL, the “MIC K. pneumoniae 064” value was 1 micrograms/mL and the “MIC K. pneumoniae 655” value came to 4 micrograms/mL. Besides, in assay [5] (setting [9]), the “MIC, A. baumannii ATCC BAA-747” value came to 2 micrograms/mL and the “MIC, A. baumannii NCTC 13424” value was found to be 1 micrograms/mL. Besides, in assay [6], the “MIC E. coli 058” value is on record as 1 micrograms/mL, the “MIC E. coli 059” value turned out to be 0.5 micrograms/mL, the “MIC E. coli 060” value was found to be 2 micrograms/mL and the “MIC E. coli 061” value amounted to 4 micrograms/mL. Besides, in assay [7] (setting [9]), the “MIC, K. pneumoniae ATCC 4352” value is recorded as 2 micrograms/mL and the “MIC, K. pneumoniae ATCC BAA-2146” value amounted to 2 micrograms/mL. Besides, in assay [8] (setting [9]), the “MIC, E. coli ATCC 25922” value was 1 micrograms/mL and the “MIC, E. coli NCTC 13441” value came to 1 micrograms/mL.
